The subject of one assay is ANO1 protein. As to the kind of experiment: Western blot of protein expression. The assay is classed as cell-based, human. The settings on record: 48 hours, concentration-dependent. Here is the method: (§1) Human head and neck cancer cell lines, FaDu cells and SCC-25 cells, were seeded in 60 mm dishes at a density of 5 × 10^5 cells and cultured for 24 hours. Thereafter, the FaDu cells were treated with compound AON-MG23 of the present invention at concentrations of 0 µM, 0.25 µM, 0.5 µM, 1 µM, 2 µM, and 4 µM, and the SCC-25 cells were treated with the compound at concentrations of 0 µM, 0.25 µM, 0.5 µM, 1 µM, and 2 µM. The cells were cultured for 48 hours. After culture, the cells were recovered, and the recovered cells were lysed to perform Western blot. As antibodies used for Western blot, an anti-ANO1 antibody (Abcam, ab53212), an anti-EGFR antibody (Cell Signaling, #4267S), and an anti-glyceraldehyde 3-phosphate dehydrogenase (GAPDH) antibody (Santacruz, #SC-5286) were used. Protein concentration was quantified using the […] (Protein Quantitation Assay, BSA assay) (Pierce, Cat.23225). After lysing the cells, the proteins obtained therefrom were separated by molecular weight using 10% sodium dodecyl sulfate-polyacrylamide gel electrophoresis (SDS-PAGE) with equal amounts (20 µg). After transferring the proteins to a polyvinylidene fluoride (PVDF) membrane (Bio-Rad), the proteins were treated with a 5% blocking buffer (5% skim milk in Tris-buffered saline (TBS) buffer containing 0.1% Tween 20 (TBS-T)) at room temperature for one hour. Subsequently, the membrane was treated with a primary antibody, which was allowed to react at 4 °C for 16 hours. After the reaction was complete, the membrane was washed three times with TBS-T. Subsequently, the membrane was treated with a secondary antibody labeled with horseradish peroxidase at room temperature for one hour and then visualized using an enhanced chemiluminescence (ECL) kit (Bio-Rad). The amount of each protein was quantified and analyzed using Image J software.
A general note: A western blot detects proteins with antibodies after separation by electrophoresis.

The subject of the next assay is EGFR protein. As to the kind of experiment: Western blot of protein expression. In kind it is cell-based, human. To be noted: 48 hours, concentration-dependent. On the procedure: as §1
Assay [1] has as its system SCC-25 cells. In words: Matrigel Transwell invasion assay. To be noted: 0.25-2 µM, 24 hours, FIG. 4B. The assay is classed as cell-based, human. Here is the method: (§2) Human head and neck cancer cell lines, FaDu cells and SCC-25 cells, were seeded at a density of 6 x 10^4 cells/well on top of filters coated with Matrigel (Transwell invasion chamber, Corning). Thereafter, the FaDu cells were treated with compound AON-MG23 of the present invention at concentrations of 0 µM, 0.25 µM, 0.5 µM, 1 µM, and 2 µM, and the SCC-25 cells were also treated with the compound at concentrations of 0 µM, 0.25 µM, 0.5 µM, 1 µM, and 2 µM. Cells were cultured in a CO2 in an incubator at 37 °C for 24 hours. After culture, cell fixation and staining were performed using the Diff-Quick stain Kit (Sysmex, Kobe, Japan). The stained cells were imaged under a microscope, and the cells were counted and statistically analyzed using Image J software.

Assay [2] concerns FaDu cells. In words: Matrigel Transwell invasion assay. The assay is classed as cell-based, human. The settings on record: 0.25-2 µM, 24 hours, FIG. 4A. On the procedure: as §2
Assay [3] relates to SCC-25 cells. As to the kind of experiment: cell migration assay (SPLScar Block plates). The settings on record: Homo sapiens, 17 hours, FIG. 3B, read-out: inhibition of migration compared to the control group. In kind it is cell-based. Here is the method:
(§3) Human head and neck cancer cell lines, FaDu cells and SCC-25 cells, were seeded in SPLScar Block plates (SPL) at a density of 7.2 x 10^4/well and cultured for 24 hours. After 24 hours, the blocks were removed, and at the same time, compound AON-MG23 of the present invention was applied at various concentrations. Thereafter, cells were cultured in a CO2 incubator at 37 °C for 17 hours. Specifically, the FaDu cells were treated with compound AON-MG23 of the present invention at concentrations of 0 µM, 0.25 µM, 0.5 µM, 1 µM, and 2 µM, and the SCC-25 cells were also treated at concentrations of 0 µM, 0.25 µM, 0.5 µM, 1 µM, and 2 µM. Photographs were taken before and after each culture, and the migration distance of the cells was measured using Image J software. Based on the results, the inhibition of the cell migration was analyzed.

Assay [4] concerns FaDu cells. As to the kind of experiment: cell migration assay (SPLScar Block plates). The assay is classed as cell-based. The settings on record: Homo sapiens, 17 hours, FIG. 3A, read-out: inhibition of migration compared to the control group. On the procedure: as §3
Assay [5] deals with FaDu cells. In words: clonogenic assay. The assay is classed as cell-based, human. To be noted: 0.125-1 µM, nine days, FIG. 2. Here is the method:
To confirm the proliferation inhibitory effect of compound AON-MG23 of the present invention on head and neck cancer cells, a clonogenic assay was conducted. Specifically, head and neck cancer cell line FaDu cells were plated in a 6-well cell culture plate at a density of 250 cells per well. On the next day, the cell culture medium was removed and replaced with a cell culture medium containing compound AON-MG23 of the present invention at concentrations of 0 µM, 0.125 µM, 0.25 µM, 0.5 µM, and 1 µM. After culturing the cells for nine days, the resulting cell colonies were stained and photographed, and then the cell colonies were counted and analyzed using Image J software.

The subject of assay [6] is SCC-25 cells. As to the kind of experiment: CCK assay, cell proliferation. The assay is classed as cell-based, human. The settings on record: 0.5-4 µM, 48 hours, absorbance at 450 nm, FIG. 1. Here is the method:
(§4) FaDu cells and squamous cell carcinoma-25 (SCC-25) cells, which are human head and neck cancer cell lines, were seeded in 96-well plates at a density of 1 x 10^5 cells/well and cultured for 24 hours. Thereafter, the cells were treated with compound AON-MG23 of the present invention at various concentrations and cultured for 48 hours. The cells were treated with the compound of the present invention at various concentrations of 0 µM, 0.5 µM, 1 µM, 2 µM, and 4 µM. 10 µL of cell counting kit (CCK) reagent was added and allowed to react for one hour, and then the absorbance was measured at 450 nm.

Assay [7] has as its system FaDu cells. In words: CCK assay, cell proliferation. To be noted: 0.5-4 µM, 48 hours, absorbance at 450 nm, FIG. 1. The assay is classed as cell-based, human. On the procedure: as §4
Assay [8] relates to FaDu cells. As to the kind of experiment: drug combination effect, SRB assay with Bliss scoring. The assay is classed as cell-based, human. The settings on record: five days co-treatment, score > 0 = synergistic. Here is the method: The combination effect of compound AON-MG23 of the present invention was confirmed using Bliss scoring based on the results of the sulforhodamine B assay (SRB assay). Specifically, human head and neck cancer cell line FaDu cells were plated in a 96-well cell culture plate at a density of 1 x 10^3 cells/well. On the next day, in order to confirm the combination effect with compound AON-MG23 of the present invention, a drug, paclitaxel or osimertinib, was diluted to concentrations for testing, and cells were treated with the diluted drug and then cultured for five days. […] The absorbance of the dissolved solution was measured at 540 nm using a plate reader. The measured absorbance values were compared to the control group and converted into percentages, and the combination effect was analyzed using the percentage data at an analysis website (https://synergyfinder.fimm.fi/). The presence of a combination effect was evaluated according to the following criteria based on relevant literature (Bliss, C. I. (1939). The toxicity of poisons applied jointly. Annals of Applied Biology, 26(3), 585-615.): a score > 0 indicates a synergistic effect; a score = 0 indicates an independent effect; and a score < 0 indicates an antagonistic effect.
Background: Sulforhodamine B stains cellular protein and so reports cell mass.

Where [9] appears, read: SCC-25 cells, 0.25-2 µM, FIG. 5B.

Take `COc1cc(N2CCC(N(C)C)CC2)ccc1Nc1ncc(Cl)c(Nc2ccccc2N(C2CC2)S(C)(=O)=O)n1` [AON-MG23, N-(2-((5-chloro-2-((4-(4-(dimethylamino)piperidin-1-yl)-2-methoxyphenyl)amino)pyrimidin-4-yl)amino)phenyl)-N-cyclopropylmethanesulfonamide]: the ANO1 protein level result is “significantly inhibited” in the assay with ANO1 protein (FaDu cells, 0.25-4 µM, FIG. 5A) and “significantly inhibited” in the assay on ANO1 protein (setting [9]). Further, the EGFR protein level entry was “significantly inhibited” in the assay with EGFR protein (FaDu cells, 0.25-4 µM, FIG. 5A) and “significantly inhibited” in the assay on EGFR protein (setting [9]). The “degree of penetration into Matrigel” value with SCC-25 cells [1] and with FaDu cells [2] was “reduced degree of penetration into Matrigel compared to the untreated control group” throughout. Moreover, in the assay on SCC-25 cells [3], the inhibition at 1 µM is approximately 90%. Also, the inhibition at 2 µM in the assay with FaDu cells [4] was not below 80%. Besides, in the assay with FaDu cells [5], the clonogenesis result is “clonogenesis of the FaDu cells was inhibited”. Besides, the “proliferation of head and neck cancer cells” value is “inhibited the proliferation of head and neck cancer cells” in the assay on SCC-25 cells [6]; “inhibited the proliferation of head and neck cancer cells” with FaDu cells [7]. Further, the Bliss synergy score is reported as 19.25 in the assay with FaDu cells [8] (combination with osimertinib, FIG. 6B) and 6.72 points in the assay on FaDu cells [8] (combination with paclitaxel, FIG. 6A).

(Values after patent EP4813377A1, “PHARMACEUTICAL COMPOSITION FOR PREVENTING OR TREATING HEAD AND NECK CANCER” (Astrion Inc., priority 2023, dated 2025).)
